Drawing on patent US20040110763A1, “Pyrazolopyridine compound and pharmaceutical use thereof” (priority 2000, published 2004), this text covers melting point for 12 compounds.

In the case of `CCN(CC)C(=O)c1ccn2nc(-c3ccccc3)c(-c3ccc(=O)n(C(C)C)n3)c2c1` [Example 85, N,N-Diethyl-3-(3-oxo-2-isopropyl-2,3-dihydropyridazin-6-yl)-2-phenylpyrazolo[1,5-a]pyridine-5-carboxamide], the melting point was in the range of 157 to 158 °C.
Regarding `CC(C)NC(=O)c1ccn2nc(-c3ccccc3)c(-c3ccc(=O)n(C(C)C)n3)c2c1` [Example 95, N-Isopropyl-3-(3-oxo-2-isopropyl-2,3-dihydropyridazin-6-yl)-2-phenylpyrazolo[1,5-a]pyridine-5-carboxamide], the melting point lay within 230 to 232 °C.
As for `CC(C)n1nc(-c2c(-c3ccccc3)nn3ccc(C(=O)NCc4cccnc4)cc23)ccc1=O` [Example 87, N-(3-Pyridinylmethyl)-3-(3-oxo-2-isopropyl-2,3-dihydropyridazin-6-yl)-2-phenylpyrazolo[1,5-a]pyridine-5-carboxamide], the figure is 192 to 193 °C; as for `CC(C)n1nc(-c2c(-c3ccccc3)nn3ccc(OC4CCN(C(=O)OC(C)(C)C)CC4)cc23)ccc1=O` [Example 29, tert-Butyl 4-{[3-(3-oxo-2-isopropyl-2,3-dihydropyridazin-6-yl)-2-phenylpyrazolo[1,5-a]pyridin-5-yl]oxy}-1-piperidinecarboxylate], 176 to 179 °C.
As for `CC(C)n1nc(-c2c(-c3ccccc3)nn3ccc(C(=O)NCCOc4ccccc4)cc23)ccc1=O` [Example 92, N-(2-Phenoxyethyl)-3-(3-oxo-2-isopropyl-2,3-dihydropyridazin-6-yl)-2-phenylpyrazolo[1,5-a]pyridine-5-carboxamide], the figure is 156 to 157 °C; as for `CC(C)C(=O)Nc1ccn2nc(-c3ccccc3)c(-c3ccc(=O)n(C(C)C)n3)c2c1` [Example 149, 5-(2-Methylpropanoylamino)-3-(3-oxo-2-isopropyl-2,3-dihydropyridazin-6-yl)-2-phenylpyrazolo[1,5-a]pyridine], 199 to 200 °C; as for `CC(C)n1nc(-c2c(-c3ccccc3)nn3ccc(N4CCNCC4)cc23)ccc1=O` [Example 107, 5-(1-piperazinyl)-3-(3-oxo-2-isopropyl-2,3-dihydropyridazin-6-yl)-2-phenylpyrazolo[1,5-a]pyridine], 203 to 204 °C.
For `COC(=O)N1CCN(c2ccn3nc(-c4ccccc4)c(-c4ccc(=O)n(C(C)C)n4)c3c2)CC1` [Example 108, methyl 4-[3-(3-oxo-2-isopropyl-2,3-dihydropyridazin-6-yl)-2-phenylpyrazolo[1,5-a]pyridin-5-yl]-1-piperazinecarboxylate], the melting point was in the range of 206 to 207 °C.
`CC(C)n1nc(-c2c(-c3ccccc3)nn3ccc(N4CCN(C(=O)CN(C)C)CC4)cc23)ccc1=O` [Example 114, 5-{4-[(dimethylamino)acetyl]-1-piperazinyl}-3-(3-oxo-2-isopropyl-2,3-dihydropyridazin-6-yl)-2-phenylpyrazolo[1,5-a]pyridine] came in with a melting point of 129 to 130 °C.
`CC(C)n1nc(-c2c(-c3ccccc3)nn3ccc(C#Cc4ccccc4)cc23)ccc1=O` [Example 138, 5-Phenylethynyl-3-(3-oxo-2-isopropyl-2,3-dihydropyridazin-6-yl)-2-phenylpyrazolo[1,5-a]pyridine] displayed a melting point of 185 to 186 °C.
In the case of `CC(C)n1nc(-c2c(-c3ccccc3)nn3ccc(OCCN4CCCC4)cc23)ccc1=O` [Example 17, 5-[2-(1-Pyrrolidinyl)ethoxy]-3-(3-oxo-2-isopropyl-2,3-dihydropyridazin-6-yl)-2-phenylpyrazolo[1,5-a]pyridine], the melting point fell in the range of 149 to 150 °C.
As for `COc1ccn2nc(-c3ccc(F)cc3)c(-c3ccc(=O)n(C(C)C)n3)c2c1` [Example 129, 5-Methoxy-3-(3-oxo-2-isopropyl-2,3-dihydropyridazin-6-yl)-2-(4-fluorophenyl)pyrazolo[1,5-a]pyridine], the figure is 176 to 177 °C.

As a reminder, the melting point is the temperature of the solid-liquid transition.
